Assay results: article PMC5433425 (PeerJ, 2017)
Converted amounts (≈) assume the structure as drawn. “And” between values parts separate entries of the source, which are not always exact repeats. Equal values may be shown once.

What was measured:
E. coli AG100 [1] = assay: Time-kill kinetics (CFU); type: cell-based, Escherichia coli; details: AG100
Procedure: A drug-free control was included in the assay to monitor the normal growth of the strain. Cultures were sampled for CFU determination after 0, 1, 2, 3, 4, 5, 6, and 24 h of incubation at 37 °C with shaking. For CFU determination, 10-fold serial dilutions were made in a saline solution and 20 µl of each solution was placed onto the surface of a Mueller–Hinton agar plate. The colonies were counted after the incubation of the plates at 37 °C for 24 h. The limit of detection of the assay was 17 CFU/ml. Each assay was repeated at least twice.

E. coli AG100 [2] = assay: Intracellular ATP levels determination; type: cell-based, Escherichia coli
Procedure: The ATP levels were measured using the ATP Determination Kit (Invitrogen, Life Technologies, Paisley, UK) according to the manufacturer’s instructions. […] A drug-free control was included in the assay to monitor the normal growth of the strain. Aliquots of bacteria were collected at 0, 1, 2, 3, 4, 5, 6, and 24 h of incubation at 37 °C, with shaking, inactivated by heating and immediately deep frozen. […] CPZ and PAβN were included for comparison.

Mycobacterium avium 104 = assay: MIC, antibacterial specificity; type: cell-based
[3] = tested on: Staphylococcus aureus ATCC25923; assay: MIC, antibacterial specificity; type: cell-based
[4] = tested on: Klebsiella pneumoniae FF4891; assay: MIC, antibacterial specificity; type: cell-based
[5] = tested on: Salmonella enterica serovar Enteritidis NCTC13349; assay: MIC, antibacterial specificity; type: cell-based

CCCOc1ccc(-c2cc(OCCN3CCNCC3)c3ccccc3n2)cc1 [PQQ4R, 4-(2-(piperazin-1-yl)ethoxy)-2-(4-propoxyphenyl) quinolone]
CFU count - absolute values (E. coli AG100 [1]; 4xMIC, T24 (24 h)): 0 | CFU count Log10 (E. coli AG100 [1]; 4xMIC, T24 (24 h)): 0 | CFU count Mean (E. coli AG100 [1]; 4xMIC, T24 (24 h)): 0.0E+00 | CFU count - Strain dilution (E. coli AG100 [1]; 8xMIC, T1 (1 h)): 0 | CFU count - absolute values (E. coli AG100 [1]; 8xMIC, T1 (1 h)): 0 | CFU count Log10 (E. coli AG100 [1]; 8xMIC, T1 (1 h)): 0 | CFU count Mean (E. coli AG100 [1]; 8xMIC, T1 (1 h)): 0.0E+00 | CFU count - Strain dilution (E. coli AG100 [1]; 8xMIC, T2 (2 h)): 0 | CFU count - absolute values (E. coli AG100 [1]; 8xMIC, T2 (2 h)): 0 | CFU count Log10 (E. coli AG100 [1]; 8xMIC, T2 (2 h)): 0 | CFU count Mean (E. coli AG100 [1]; 8xMIC, T2 (2 h)): 0.0E+00 | CFU count - Strain dilution (E. coli AG100 [1]; 8xMIC, T3 (3 h)): 0 | CFU count - absolute values (E. coli AG100 [1]; 8xMIC, T3 (3 h)): 0 | CFU count Log10 (E. coli AG100 [1]; 8xMIC, T3 (3 h)): 0 | CFU count Mean (E. coli AG100 [1]; 8xMIC, T3 (3 h)): 0.0E+00 | CFU count - Strain dilution (E. coli AG100 [1]; 8xMIC, T4 (4 h)): 0 | CFU count - absolute values (E. coli AG100 [1]; 8xMIC, T4 (4 h)): 0 | CFU count Log10 (E. coli AG100 [1]; 8xMIC, T4 (4 h)): 0 | CFU count Mean (E. coli AG100 [1]; 8xMIC, T4 (4 h)): 0.0E+00 | CFU count - Strain dilution (E. coli AG100 [1]; 8xMIC, T5 (5 h)): 0 | CFU count - absolute values (E. coli AG100 [1]; 8xMIC, T5 (5 h)): 0 | CFU count Log10 (E. coli AG100 [1]; 8xMIC, T5 (5 h)): 0 | CFU count Mean (E. coli AG100 [1]; 8xMIC, T5 (5 h)): 0.0E+00 | CFU count - Strain dilution (E. coli AG100 [1]; 8xMIC, T6 (6 h)): 0 | CFU count - absolute values (E. coli AG100 [1]; 8xMIC, T6 (6 h)): 0 | CFU count Log10 (E. coli AG100 [1]; 8xMIC, T6 (6 h)): 0 | CFU count Mean (E. coli AG100 [1]; 8xMIC, T6 (6 h)): 0.0E+00 | CFU count - Strain dilution (E. coli AG100 [1]; 8xMIC, T24 (24 h)): 0 | CFU count - absolute values (E. coli AG100 [1]; 8xMIC, T24 (24 h)): 0 | CFU count Log10 (E. coli AG100 [1]; 8xMIC, T24 (24 h)): 0 | CFU count Mean (E. coli AG100 [1]; 8xMIC, T24 (24 h)): 0.0E+00 | CFU count Log10 (E. coli AG100 [1]; MIC, T1 (1 h)): 3.007 | CFU count Mean (E. coli AG100 [1]; MIC, T1 (1 h)): 1.0E+03 | CFU count Log10 (E. coli AG100 [1]; MIC, T2 (2 h)): 2.336 | CFU count Mean (E. coli AG100 [1]; MIC, T2 (2 h)): 2.2E+02 | CFU count Log10 (E. coli AG100 [1]; MIC, T3 (3 h)): 1.222 | CFU count Mean (E. coli AG100 [1]; MIC, T3 (3 h)): 1.7E+01 | CFU count - Strain dilution (E. coli AG100 [1]; MIC, T4 (4 h)): 0 | CFU count - absolute values (E. coli AG100 [1]; MIC, T4 (4 h)): 0 | CFU count Log10 (E. coli AG100 [1]; MIC, T4 (4 h)): 0 | CFU count Mean (E. coli AG100 [1]; MIC, T4 (4 h)): 0.0E+00 | CFU count - Strain dilution (E. coli AG100 [1]; MIC, T5 (5 h)): 0 | CFU count - absolute values (E. coli AG100 [1]; MIC, T5 (5 h)): 0 | CFU count Log10 (E. coli AG100 [1]; MIC, T5 (5 h)): 0 | CFU count Mean (E. coli AG100 [1]; MIC, T5 (5 h)): 0.0E+00 | CFU count - Strain dilution (E. coli AG100 [1]; MIC, T6 (6 h)): 0 | CFU count - absolute values (E. coli AG100 [1]; MIC, T6 (6 h)): 0 | CFU count Log10 (E. coli AG100 [1]; MIC, T6 (6 h)): 0 | CFU count Mean (E. coli AG100 [1]; MIC, T6 (6 h)): 0.0E+00 | CFU count - Strain dilution (E. coli AG100 [1]; MIC, T24 (24 h)): 0 | CFU count - absolute values (E. coli AG100 [1]; MIC, T24 (24 h)): 0 | CFU count Log10 (E. coli AG100 [1]; MIC, T24 (24 h)): 0 | CFU count Mean (E. coli AG100 [1]; MIC, T24 (24 h)): 0.0E+00 | reduction in bacterial viability (E. coli AG100 [1]; half MIC): approx. 1 log | ATP levels during the first 3 h of exposure (E. coli AG100 [2]; AG100, 320 µM (1/2 MIC) and 640 µM (MIC), same level as drug-free control): remained constant | ATP production less than that of the drug-free control (E. coli AG100 [2]; AG100, half MIC (320 µM), 24 h of exposure): 80% | ATP - luciferase:Lum (E. coli AG100 [2]; PQQ4R MIC, T1): 438 and 716 | ATP - luciferase:Lum (E. coli AG100 [2]; PQQ4R MIC, T2): 453 and 417 | ATP - luciferase:Lum (E. coli AG100 [2]; PQQ4R MIC, T3): 588 and 696 | ATP - luciferase:Lum (E. coli AG100 [2]; PQQ4R MIC, T4): 454 and 413 | ATP - luciferase:Lum (E. coli AG100 [2]; PQQ4R MIC, T5): 701 and 675 | ATP - luciferase:Lum (E. coli AG100 [2]; PQQ4R MIC, T6): 445 and 588 | ATP - luciferase:Lum (E. coli AG100 [2]; PQQ4R MIC, T24): 545 and 530 | ATP - luciferase:Lum (E. coli AG100 [2]; PQQ4R half MIC, T1): 406 and 431 | ATP - luciferase:Lum (E. coli AG100 [2]; PQQ4R half MIC, T2): 561 and 463 | ATP - luciferase:Lum (E. coli AG100 [2]; PQQ4R half MIC, T3): 373 and 549 | ATP - luciferase:Lum (E. coli AG100 [2]; PQQ4R half MIC, T4): 467 and 479 | ATP - luciferase:Lum (E. coli AG100 [2]; PQQ4R half MIC, T5): 511 and 436 | ATP - luciferase:Lum (E. coli AG100 [2]; PQQ4R half MIC, T6): 560 and 587 | ATP - luciferase:Lum (E. coli AG100 [2]; PQQ4R half MIC, T24): 4358 and 4198 | MIC (Mycobacterium avium 104): 32 µg/mL (≈ 81.7 µM) | MIC [3]: 50 µg/mL (≈ 128 µM) | MIC [4]: >256 µg/mL | MIC [5]: 256 µg/mL (≈ 654 µM)
